# Measured values taken from patent publication US20220218827A1, “DELIVERY OF THERAPEUTIC COMPOUNDS WITH IRON OXIDE NANOPARTICLES” (Memorial Sloan Kettering Cancer Center, priority 2012, published 2022).
# Experiments:
# PC3 tumors = test: Tumor growth in nude mice bearing PC3 tumors; format: in vivo; settings: versus control animals
# Protocol: Nude, male mice (n=10) bearing PC3 tumors on their flanks were treated on day 0, day 2 and day 6 with 100 μι, either doxorubicin alone or doxorubi tin-loaded Feraheme®, both at a final doxorubicin concentration of 0.28 mM. Changes in tumor size were evaluated with a microcaliper, and at the end of the 8-day study the mice were euthanized, according to the Institutional Animal Care and Use Committee guidelines. • Data Analysis.
# Specifically, the mice were treated with equal concentrations of the drug on day 0, 2 and 6, and tumor growth was determined with microcalipers. Control animals were treated with 100 μι, of 10% DMSO-containing PBS to match the DMSO content of the free doxorubicin injection, since the drug was dissolved in DMSO and diluted to the desired concentration in PBS. On day 6 and 8, the tumors were measured, and the change in tumor growth was determined by comparing the volume of tumors from treated animals with those of control ones.
# [1] = test system: human prostate adenocarcinoma cells (LNCaP); test: LNCaP cell viability, Alamar Blue method; format: cell-based; settings: 48 h, [Doxorubicin]final=7.5 μM, free or intercalated drug, read-out: reduction in cell viability
# Protocol: Cell viability and in vivo studies. LNCaP cells were seeded on black-walled, clear bottom 96-well plates at a cell density of 10,000 cells per well, supplemented with 100 iL 10% FBS-containing RPMI medium. […] Controls included cells incubated with unloaded nanoparticles or DMSO, corresponding to the free drug's final solvent concentration. Subsequently, the old medium was aspirated, and cell viability was assessed via the Alamar Blue method (Invitrogen). Briefly, the cells were supplemented with 10%-alamar-blue-containing medium (10% FBS-containing RPMI), followed by 3 h incubation in a humidified incubator (37° C., 5% CO2) and recording of fluorescence emission (λ ? =565 nm) with the SpectraMax M5 plate reader. […] Experiments were performed in triplicate unless otherwise stated, with the results are presented as mean±SEM.
# Cell viability and in vivo studies. […] Subsequently, the old medium was aspirated, and cell viability was assessed via the Alamar Blue method (Invitrogen). Briefly, the cells were supplemented with 10%-alamar-blue-containing medium (10% FBS-containing RPMI), followed by 3 h incubation in a humidified incubator (37° C., 5% CO2) and recording of fluorescence emission ? ran, λειλ=585 nm) with the SpectraMax M5 plate reader.
smiles,measurement,setting,value
COc1cccc2c1C(=O)c1c(O)c3c(c(O)c1C2=O)C[C@@](O)(C(=O)CO)C[C@@H]3O[C@H]1C[C@H](N)[C@H](O)[C@H](C)O1 [doxorubicin],suppression of tumor growth after three injections,"PC3 tumors; iv day 0, 2 and 6, measured day 8, 0.28 mM doxorubicin",34%
same,tumor regression after two injections,"PC3 tumors; iv day 0 and 2, measured day 6, 100 μL of 0.28 mM doxorubicin",some tumor growth
same,cytotoxicity at […],[1],60%
